Results from patent US9605005B2, “Alkynyl alcohols and methods of use” (Genentech, Inc., priority 2013, dated 2017).

Assays:
[1] = test system: REL-A (p65) nuclear translocation, HeLa cells; test: REL-A (p65) nuclear translocation assay in HeLa cells (classical NF-kB signaling, TNF-α stimulated); assay type: cell-based; conditions: Homo sapiens, 0.5 h; HeLa cells, 10 ng/mL TNF-α for 30 minutes; read-out: REL-A HeLa Transloc Assay (IC50)
Summary of the method: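 HeLa cells were exposed to test compounds at various concentrations (0.2% DMSO final) in medium with 10% fetal bovine serum for 4.5 hours, then stimulated for 30 minutes with 10 ng/mL TNF-α. After fixation in 4% paraformaldehyde, 0.1% Triton X-100 permeabilization and staining with 400 ng/mL anti-REL-A (p65) antibody, Alexa488 secondary and DRAQ5, Opera imaging gave nuclear-to-cytoplasmic signal ratios to calculate IC50.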

[2] = target: nuclear factor-kappa B (NF-kB)-inducing kinase (NIK) (Homo sapiens (Human), UniProt Q99558); test: NIK enzyme inhibition assay (Transcreener ADP, NIK ADP-FP); assay type: biochemical; conditions: purified NIK 0.5 nM, 10 μM ATP, fluorescence polarization; read-out: NIK ADP-FP (Ki μM)
[3] = test system: p52 (NF-kB2) nuclear translocation, HeLa cells; test: p52 (NF-kB2) nuclear translocation assay in HeLa cells (non-classical NF-kB signaling, anti-lymphotoxin beta receptor antibody stimulated); assay type: cell-based; conditions: Homo sapiens, 100 ng/mL anti-lymphotoxin beta receptor antibody for 5 hours, read-out: p52 HeLa Transloc Assay (IC50)
Summary of the method: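 HeLa cells in 10% FBS medium were treated with compound (0.2% DMSO final) and stimulated with 100 ng/mL anti-lymphotoxin beta receptor antibody for 5 h. Fixed cells were immunostained for p52 and imaged with DRAQ5 nuclear stain. Translocation is the nuclear to cytoplasmic intensity ratio, and IC50 values are in micromolar.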

Sequence of nuclear factor-kappa B (NF-kB)-inducing kinase (NIK) (Q99558 whole entry): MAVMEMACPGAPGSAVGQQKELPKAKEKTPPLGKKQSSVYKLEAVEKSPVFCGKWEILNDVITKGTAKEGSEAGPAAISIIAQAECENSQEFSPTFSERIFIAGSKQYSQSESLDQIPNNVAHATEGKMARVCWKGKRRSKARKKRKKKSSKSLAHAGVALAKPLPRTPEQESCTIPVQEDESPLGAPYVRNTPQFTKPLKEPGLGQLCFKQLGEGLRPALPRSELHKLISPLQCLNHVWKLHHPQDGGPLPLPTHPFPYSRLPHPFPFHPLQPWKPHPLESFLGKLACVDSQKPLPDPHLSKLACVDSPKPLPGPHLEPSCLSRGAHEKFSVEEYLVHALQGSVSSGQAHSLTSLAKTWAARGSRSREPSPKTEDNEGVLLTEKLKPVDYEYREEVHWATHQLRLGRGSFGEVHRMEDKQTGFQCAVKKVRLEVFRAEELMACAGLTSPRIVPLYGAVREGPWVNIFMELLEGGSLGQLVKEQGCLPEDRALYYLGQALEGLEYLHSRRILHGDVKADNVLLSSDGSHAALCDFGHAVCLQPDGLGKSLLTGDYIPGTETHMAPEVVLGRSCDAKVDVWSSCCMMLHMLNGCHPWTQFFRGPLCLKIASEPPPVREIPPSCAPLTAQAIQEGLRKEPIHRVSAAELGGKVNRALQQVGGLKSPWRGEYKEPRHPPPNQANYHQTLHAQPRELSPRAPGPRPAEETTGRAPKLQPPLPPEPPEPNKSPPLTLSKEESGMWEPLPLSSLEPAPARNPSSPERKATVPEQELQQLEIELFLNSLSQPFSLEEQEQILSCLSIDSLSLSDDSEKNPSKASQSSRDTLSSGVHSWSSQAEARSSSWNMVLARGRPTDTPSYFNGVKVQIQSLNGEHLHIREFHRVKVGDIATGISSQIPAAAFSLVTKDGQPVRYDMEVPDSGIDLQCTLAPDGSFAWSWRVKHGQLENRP

Row | SMILES | IC50 [1] [nM] | Ki [2] [nM] | IC50 [3] [nM]
1 | CN1CC[C@@](O)(C#Cc2cccc(-n3nc(C(N)=O)c4ccc(N5CCOCC5)nc43)c2)C1=O [Compound 155, 1-[3-[2-[(3R)-3-hydroxy-1-methyl-2-oxo-pyrrolidin-3-yl]ethynyl]phenyl]-6-morpho-lino-pyrazolo[3,4-b]pyri-dine-3-carboxamide] | 20000 | 0.26 | 129
2 | CN1CC[C@@](O)(C#Cc2cccc(-n3nc(C(N)=O)c4ccc(-c5cnn(C)c5)nc43)c2)C1=O [Compound 156, 1-[3-[2-[(3R)-3-hydroxy-1-methyl-2-oxo-pyrrolidin-3-yl]ethynyl]phenyl]-6-(1-meth-ylpyrazol-4-yl)pyrazolo[3,4-b] pyridine-3-carboxamide] | 2000 | 0.09 | 95.7
3 | Cc1ncc2c(C(N)=O)nn(-c3cccc(C#C[C@]4(O)CCN(C)C4=O)c3)c2n1 [Compound 157, 1-[3-[2-[(3R)-3-hydroxy-1-methyl-2-oxo-pyrrolidin-3-yl]ethynyl]phenyl]-6-methyl-pyrazolo[3,4-d]pyrimidine-3-carboxamide] | 2000 | 0.68 | 157
4 | CN1CC[C@@](O)(C#Cc2cccc(-n3nc(C(N)=O)c4cnc(C5CC5)nc43)c2)C1=O [Compound 158, 6-cyclopropyl-1-[3-[2-[(3R)-3-hydroxy-1-methyl-2-oxo-pyrrolidin-3-yl]ethynyl]phenyl]pyrazolo[3,4-d]pyri-midine-3-carboxamide] | 2000 | 0.23 | 46.2
5 | CN1CC[C@@](O)(C#Cc2cccc(-n3nc(C(N)=O)c4cnc(C(F)(F)F)nc43)c2)C1=O [Compound 159, 1-[3-[2-[(3R)-3-hydroxy-1-methyl-2-oxo-pyrrolidin-3-yl]ethynyl]phenyl]-6-(trifluoro-methyl)pyrazolo[3,4-d] pyrimidine-3-carboxamide] | 2000 | 7.13 | 2000
6 | COc1ncc2c(C(N)=O)nn(-c3cccc(C#C[C@]4(O)CCN(C)C4=O)c3)c2n1 [Compound 160, 1-[3-[2-[(3R)-3-hydroxy-1-methyl-2-oxo-pyrrolidin-3-yl]ethynyl]phenyl]-6-methoxy-pyrazolo[3,4-d]pyrimidine-3-carboxamide] | 20000 | 0.13 | 66.8
7 | CN1CC[C@@](O)(C#Cc2cccc(-n3nc(C(N)=O)c4cc(OCCN5CCC5)ccc43)c2)C1=O [Compound 161, 5-[2-(azetidin-1-yl)ethoxy]-1-[3-[2-[(3R)-3-hydroxy-1-methyl-2-oxo-pyrrolidin-3-yl]ethynyl]phenyl]indazole-3-carboxamide] | 2000 | 2.52 | 770
8 | CN1CC[C@@](O)(C#Cc2cccc(-n3nc(C(N)=O)c4cc(OCCN5CCOCC5)ccc43)c2)C1=O [Compound 162, 1-[3-[2-[(3R)-3-hydroxy-1-methyl-2-oxo-pyrrolidin-3-yl]ethynyl]phenyl]-5-(2-morpho-linoethoxy)indazole-3-carboxamide] | 2000 | 0.35 | 237
9 | CN1CC[C@@](O)(C#Cc2cccc(-n3nc(C(N)=O)c4ncccc43)c2)C1=O [Compound 164, 1-[3-[2-[(3R)-3-hydroxy-1-methyl-2-oxo-pyrrolidin-3-yl]ethynyl]phenyl)pyrazolo [4,3-b]pyridine-3-carboxamide] | 20000 | 1.54 | 208
10 | CCOC(=O)N1CCc2c(c(C(N)=O)nn2-c2cc(C#C[C@]3(O)CCN(C)C3=O)ccn2)C1 [Compound 165, ethyl 3-carbamoyl-1-[4-[2-[(3R)-3-hydroxy-1-methyl-2-oxo-pyrrolidin-3-yl]ethynyl]-2-pyridyl]-6,7-dihydro-4H-pyra-zolo[4,3-c]pyridine-5-car-boxylate] | 20000 | 0.23 | 274
11 | CN1CC[C@@](O)(C#Cc2cc(-n3nc(C(N)=O)c4c3CCCC4)ccn2)C1=O [Compound 166, 1-[2-[2-[(3R)-3-hydroxy-1-methyl-2-oxo-pyrrolidin-3-yl]ethynyl]-4-pyridyl]-4,5,6,7-tetrahydroindazole-3-carbox-amide] | 20000 | 1.19 | 320
12 | CN1CC[C@@](O)(C#Cc2cc(-n3nc(C(N)=O)c4c3CCCC4)ccc2C#N)C1=O [Compound 167, 1-[4-cyano-3-[2-[(3R)-3-hy-droxy-1-methyl-2-oxo-pyrroli-din-3-yl]ethynyl]phenyl]-4,5,6,7-tetrahydroindazole-3-carboxamide] | 20000 | 1.93 | 397
13 | CN1CC[C@@](O)(C#Cc2cccc(-n3nc(C(N)=O)c4c3[C@H](O)CC4)c2)C1=O [Compound 169, (6R)-6-hydroxy-1-[3-[2-[(3R)-3-hydroxy-1-methyl-2-oxo-pyrrolidin-3-yl]ethynyl]phenyl]-5,6-dihydro-4H-cyclo-penta[c]pyrazole-3-carbox-amide] | 20000 | 2.96 | 1120
14 | COc1cc2c(C(N)=O)nn(-c3cccc(C#C[C@]4(O)CCN(C)C4=O)c3)c2nn1 [Compound 173, 1-[3-[2-[(3R)-3-hydroxy-1-methyl-2-oxo-pyrrolidin-3-yl]ethynyl]phenyl]-5-methoxy-pyrazolo[3,4-c]pyridazine-3-carboxamide] | 2000 | 0.55 | 176
15 | CN1CC[C@@](O)(C#Cc2cccc(-n3nc(C(N)=O)c4ccnnc43)c2)C1=O [Compound 174, 1-[3-[2-[(3R)-3-hydroxy-1-methyl-2-oxo-pyrrolidin-3-yl]ethynyl]phenyl]pyrazolo [3,4-c]pyridazine-3-carbox-amide] | 2000 | 0.13 | 2000
16 | Cc1ccc2c(C(N)=O)nn(-c3cccc(C#C[C@]4(O)CCN(C)C4=O)c3)c2n1 [Compound 175, 1-[3-[2-[(3R)-3-hydroxy-1-methyl-2-oxo-pyrrolidin-3-yl]ethynyl]phenyl]-6-methyl-pyrazolo[3,4-b]pyridine-3-carboxamide] | > 2000 | 0.05 | 135
17 | CN1CC[C@@](O)(C#Cc2cccc(-c3nc(C(N)=O)n4c3CCCC4)c2)C1=O [Compound 177, (R)-1-(3-((3-hydroxy-1-methyl-2-oxopyrrolidin-3-yl)ethynyl)phenyl)-5,6,7,8-tetrahydroimidazo[1,5-a]pyridine-3-carboxamide] | > 2000 | 0.11 | 150
18 | CN1CC[C@@](O)(C#Cc2cccc(-c3nc(C(N)=O)n4ccc(C(N)=O)cc34)c2)C1=O [Compound 178, 1-[3-[2-[(3R)-3-hydroxy-1-methyl-2-oxo-pyrrolidin-3-yl]ethynyl]phenyl]imidazo [1,5-a]pyridine-3,7-dicarboxamide] | > 2000 | 0.1 | 636
19 | COc1ccn2c(C(N)=O)nc(-c3cccc(C#C[C@@](C)(O)c4nnc(C)o4)c3)c2c1 [Compound 181, 1-[3-[(3R)-3-hydroxy-3-(5-methyl-1,3,4-oxadiazol-2-yl)but-1-ynyl]phenyl]-7-methoxy-imidazo[1,5-a] pyridine-3-carboxamide] | > 2000 | 0.1 | 48
20 | Cc1nnc([C@](C)(O)C#Cc2cccc(-c3nc(C(N)=O)n4cc(Cl)ccc34)c2)o1 [Compound 185, 6-chloro-1-[3-[(3R)-3-hydroxy-3-(5-methyl-1,3,4-oxadiazol-2-yl)but-1-ynyl]phenyl]imidazo[1,5-a]pyridine-3-carboxamide] | > 2000 | 7.54 | 1500
21 | CN1CC[C@@](O)(C#Cc2ccc(F)c(-c3nc(C(N)=O)n4cc(Cl)ccc34)c2)C1=O [Compound 186, 6-chloro-1-[2-fluoro-5-[2-[(3R)-3-hydroxy-1-methyl-2-oxo-pyrrolidin-3-yl]ethynyl]phenyl]imidazo[1,5-a] pyridine-3-carboxamide] | > 2000 | 0.1 | 36
22 | Cc1nnc([C@](C)(O)C#Cc2cccc(-c3nc(C(N)=O)n4ccc(Cl)cc34)c2)o1 [Compound 187, 7-chloro-1-[3-[(3R)-3-hydroxy-3-(5-methyl-1,3,4-oxadiazol-2-yl)but-1-ynyl]phenyl] imidazo[1,5-a]pyridine-3-carboxamide] | > 2000 | 1.12 | 198
23 | CC1Cc2c(C(N)=O)nn(-c3cccc(C#C[C@]4(O)CCN(C)C4=O)c3)c2C1 (stereo partly drawn) [Compound 188, 1-[3-[2-[(3R)-3-hydroxy-1-methyl-2-oxo-pyrrolidin-3-yl]ethynyl]phenyl]-5-methyl-5,6-dihydro-4H-cyclopenta [c]pyrazole-3-carboxamide] | > 2000 | 0.85 | 205
24 | CN1CC[C@@](O)(C#Cc2cccc(-n3nc(C(N)=O)c4ccc(F)cc43)c2)C1=O [Compound 189, 6-fluoro-1-[3-[2-[(3R)-3-hydroxy-1-methyl-2-oxo-pyrrolidin-3-yl]ethynyl]phenyl] indazole-3-carboxamide] | > 2000 | 0.05 | 95
